Drawing on US5801180A, “Quinazoline derivatives” (priority 1991, dated 1998), this text covers IC50 for 14 compounds.

Broadly, the IC50 is the midpoint of a concentration-inhibition curve. Higher therefore signals a need for much substance.

The target of the assay is T1, cGMP-PDE prepared from the swine aeorta (Sus scrofa, UniProt A0A287B475).
T1 construct: The swine aeorta was sliced; from tissue; host or cells: swine aorta, 100000×g supernatant, DEAE-Toyopearl 650S fraction
As to the kind of experiment: Enzyme inhibiting action with the use of cGMP-PDE prepared from the swine aorta. The assay is classed as biochemical. The conditions noted are these: CaM-independent cGMP-PDE, 1 mM EGTA, 1 μM cGMP substrate, DMSO 4% or below. The essentials:
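CaM-independent cGMP-PDE isolated from pig aorta supernatant by DEAE anion-exchange chromatography. Activity measured with 1 μM cGMP substrate in presence of 1 mM EGTA, following the Thompson method. Compounds added from DMSO, final DMSO 4% or below.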
Take `O=C(O)CCCCCNc1nc(NCc2ccc3c(c2)OCO3)c2cc(Cl)ccc2n1` [Example 239, 2-(5-Carboxypentyl)amino-4-(3,4-methylenendioxybenzyl)amino-6-chloroquinazoline]: the IC50 was 0.008 µM.
The figure for `CN(CCCC(=O)O)c1nc(NCc2ccc3c(c2)OCO3)c2cc(Cl)ccc2n1` [Example 240, 2-[N-(3-Carboxypropyl)-N-methylamino]-4-(3,4-methylenedioxybenzyl)amino-6-chloroquinazoline] is 0.004 µM; for `CN(CC(=O)O)c1nc(NCc2ccc3c(c2)OCO3)c2cc(C#N)ccc2n1` [Example 241, 2-(N-Carboxymethyl-N-methylamino)-4-(3,4-methylenedioxybenzyl)amino-6-cyanoquinazoline] it is 0.18 µM; for `COc1ccc(CNc2nc(N(C)CCCC(=O)O)nc3ccc(C#N)cc23)cc1Cl` [Example 243, 2-[N-(3-Carboxypropyl)-N-methylamino]-4-(3-chloro-4-methoxybenzyl)amino-6-cyanoquinazoline] it is 0.00015 µM.
The figure for `N#Cc1ccc2nc(N3CCC(C(=O)O)CC3)nc(NCc3ccc4nc[nH]c4c3)c2c1` [Example 244, 2-(4-Carboxypiperidino)-4-(benzimidazol-5-yl)methylamino-6-cyanoquinazoline] is 0.009 µM; for `NC(=O)c1ccc2nc(N3CCC(C(=O)O)CC3)nc(NCc3ccc4c(c3)OCO4)c2c1` [Example 245, 2-(4-Carboxypiperidino)-4-(3,4-methylenedioxybenzyl)amino-6-carbamoylquinazoline] it is 0.1 µM; for `O=C(O)C1CCN(c2cc(NCc3ccc4c(c3)OCO4)c3cc(Cl)ccc3n2)CC1` [Example 255, 2-(4-Carboxypiperidino)-4-(3,4-methylenedioxybenzyl)amino-6chloroquinoline] it is 0.032 µM.
`COc1ccc(CNc2cc(N3CCC(C(=O)O)CC3)nc3ccc(Cl)cc23)cc1Cl` [Example 256, 2-(4-Carboxypiperidino)-4-(3-chloro-4-methoxybenzyl)amino-6-chloroquinoline] gave an IC50 of 0.0021 µM.
Consider `COc1ccc(CNc2cc(N3CCC(C(=O)O)CC3)nc3ccc(C#N)cc23)cc1Cl` [Example 260, 2-(4-Carboxypiperidino)-4-(3-chloro-4-methoxybenzyl)amino-6-cyanoquinoline], for which the IC50 was found to be 0.00016 µM.
As for `O=C(O)C1CCN(c2nc(NCc3ccc4c(c3)OCO4)c3cccnc3n2)CC1` [Example 262], the figure is 0.88 µM; as for `COc1nc2ccc(Cl)cc2n1Cc1ccc2c(c1)OCO2` [Example 266, 6-Chloro-2-methoxy-1-(3,4-methylenedioxybenzyl)benzimidazole], 0.11 µM; as for `Clc1ccc2nc(-n3ccnc3)n(Cc3ccc4c(c3)OCO4)c2c1` [Example 278, 6-Chloro-2-(imidazol-1-yl)-1-(3,4-methylenedioxybenzyl)benzimidazole], 0.25 µM.
The figure for `O=C(O)C1CCN(c2nc3ccc(Cl)cc3n2Cc2ccc3c(c2)OCO3)CC1` [Example 280, 2-(4-Carboxypiperidino)-6-chloro-1-(3,4-methylenedioxybenzyl)benzimidazole] is 0.25 µM; for `O=C(O)C1CCN(c2nc(NCc3ccc4c(c3)OCO4)c3cc(Br)ccc3n2)CC1` [Example 376] it is 0.021 µM.
